Earlier results on one molecule are cited in PubChem BioAssay AID1259409 (Chemical Carcinogenesis Research Information System (CCRIS), 2018).

The test system of this data set is rodent chemically induced tumor inhibition, incidence and multiplicity. As to the kind of experiment: CCRIS tumor inhibitor studies. As to conditions: for tumour outcome (control, treated, inhibition, significance): Promoter: NONE USED.

For the molecule `S=C=NCc1ccccc1`, the “tumour outcome (control, treated, inhibition, significance)” value is recorded as 100%, 14%, 86%, p<0.001 (Carcinogen: 7,12-DIMETHYLBENZ[A]ANTHRACENE, 57-97-6, Dose [Inhibitor]: 50 MG ONCE 4 HR BEFORE DMBA TREATMENT (STUDY DURATION: 18 WK), Route [Inhibitor]: INTRAGASTRIC, Species: RAT, Strain/Sex: SPRAGUE-DAWLEY/FEMALE, Target Tissue: Type of Lesion: MAMMARY GLAND: TUMOR, Dose [Carcinogen]: 12 MG IN 1 ML OLIVE OIL AT AGE 7 WK 4 HR BEFORE AGENT TREATMENT); 93%, 71%, 24%, not significant (Carcinogen: 7,12-DIMETHYLBENZ[A]ANTHRACENE, 57-97-6, Dose [Inhibitor]: 50 MG ONCE 24 HR BEFORE DMBA TREATMENT (STUDY DURATION: 18 WK), Route [Inhibitor]: INTRAGASTRIC, Species: RAT, Strain/Sex: SPRAGUE-DAWLEY/FEMALE, Target Tissue: Type of Lesion: MAMMARY GLAND: TUMOR, Dose [Carcinogen]: 12 MG IN 1 ML OLIVE OIL AT AGE 7 WK 24 HR AFTER AGENT TREATMENT); 95%, 95%, 0%, not significant (Carcinogen: BENZO[A]PYRENE, 50-32-8, Dose [Inhibitor]: 0, 6.7 UMOL IN COTTONSEED OIL 15 MIN PRIOR TO CARCINOGEN DOSES 1/2 WK FOR 3 TREATMENTS (STUDY DURATION: 26 WK), Route [Inhibitor]: GAVAGE, Species: MOUSE, Strain/Sex: STRAIN-A/FEMALE, Target Tissue: Type of Lesion: FORESTOMACH: TUMOR, Dose [Carcinogen]: 7.9 UMOL IN COTTONSEED OIL 1/2 WK FOR 3 TREATMENTS); 95%, 80%, 16%, not significant (Carcinogen: BENZO[A]PYRENE, 50-32-8, Dose [Inhibitor]: 0, 6.7 UMOL IN COTTONSEED OIL 15 MIN PRIOR TO CARCINOGEN DOSES 1/2 WK FOR 3 TREATMENTS (STUDY DURATION: 26 WK), Route [Inhibitor]: GAVAGE, Species: MOUSE, Strain/Sex: STRAIN-A/FEMALE, Target Tissue: Type of Lesion: LUNG: TUMOR, Dose [Carcinogen]: 7.9 UMOL IN COTTONSEED OIL 1/2 WK FOR 3 TREATMENTS); 41%, 0%, 100%, p<0.01 (Carcinogen: BENZO[A]PYRENE, 50-32-8, Dose [Inhibitor]: 5 MG/G DIET AT AGE 9 WK SIMULTANEOUSLY WITH CARCINOGEN, 3/WK FOR 6 WK (STUDY DURATION: 20 WK), Route [Inhibitor]: ORAL, Species: MOUSE, Strain/Sex: ICR/FEMALE, Target Tissue: Type of Lesion: FORESTOMACH: TUMOR, Dose [Carcinogen]: 0.3 MG/G DIET AT AGE 9 WK, 3/WK FOR 6 WK); 10/18 (55%), 1/17 (6%), 89%, p<0.002 (Carcinogen: DIETHYLNITROSAMINE, 55-18-5, Dose [Inhibitor]: 0, 100 PPM IN DIET FOR DURATION OF STUDY BEGINNING 1 WK PRIOR TO CARCINOGEN DOSE (STUDY DURATION: 53 WK), Route [Inhibitor]: ORAL, Species: RAT, Strain/Sex: ACI/MALE, Target Tissue: Type of Lesion: LIVER: HEPATOCELLULAR ADENOMA, Dose [Carcinogen]: 200 MG/KG BW ONCE). Besides, the “tumour outcome (control, treated, inhibition, significance)” value reads like this: (Carcinogen: DIETHYLNITROSAMINE, 55-18-5, Dose [Inhibitor]: 0, 100 PPM IN DIET FOR DURATION OF STUDY BEGINNING 1 WK PRIOR TO CARCINOGEN DOSE (STUDY DURATION: 53 WK), Route [Inhibitor]: ORAL, Species: RAT, Strain/Sex: ACI/MALE, Target Tissue: Type of Lesion: LIVER: HEPATOCELLULAR CARCINOMA, Dose [Carcinogen]: 200 MG/KG BW ONCE) 6/18 (33%), 0/17 (0%), 100%, p<0.02; (Carcinogen: METHYLAZOXYMETHANOL ACETATE, 592-62-1, Dose [Inhibitor]: 0, 400 PPM IN DIET FOR 4 WK BEGINNING 1 WK PRIOR TO CARCINOGEN TREATMENT (STUDY DURATION: 49 WK), Route [Inhibitor]: ORAL, Species: RAT, Strain/Sex: ACI/FEMALE, Target Tissue: Type of Lesion: COLON: ADENOMA OR CARCINOMA, Dose [Carcinogen]: 25 MG/KG BW 1/WK FOR 3 WK) 15/18 (83%), 9/19 (47%), 43%, p<0.05; (Carcinogen: METHYLAZOXYMETHANOL ACETATE, 592-62-1, Dose [Inhibitor]: 0, 400 PPM IN DIET FOR 46 WK BEGINNING 1 WK POST CARCINOGEN TREATMENT (STUDY DURATION: 49 WK), Route [Inhibitor]: ORAL, Species: RAT, Strain/Sex: ACI/FEMALE, Target Tissue: Type of Lesion: COLON: ADENOMA OR CARCINOMA, Dose [Carcinogen]: 25 MG/KG BW 1/WK FOR 3 WK) 15/18 (83%), 17/19 (89%), -7%, not significant; (Carcinogen: METHYLAZOXYMETHANOL ACETATE, 592-62-1, Dose [Inhibitor]: 0, 400 PPM IN DIET FOR 46 WK BEGINNING 1 WK POST CARCINOGEN TREATMENT (STUDY DURATION: 49 WK), Route [Inhibitor]: ORAL, Species: RAT, Strain/Sex: ACI/FEMALE, Target Tissue: Type of Lesion: SMALL INTESTINE: CARCINOMA, Dose [Carcinogen]: 25 MG/KG BW 1/WK FOR 3 WK) 10/18 (56%), 10/19 (53%), 5%, not significant; (Carcinogen: N-BUTYL-N-(4-HYDROXYBUTYL)NITROSAMINE (3817-11-6), Dose [Inhibitor]: 0, 10 PPM IN THE DIET FOR 40 WK (STUDY DURATION: 40 WK), Route [Inhibitor]: ORAL, Species: RAT, Strain/Sex: F344/MALE, Target Tissue: Type of Lesion: URINARY BLADDER: CARCINOMA, Dose [Carcinogen]: 50 PPM IN DRINKING WATER FOR 40 WK) 19/20 (95%), 18/20 (90%), 5%, not significant; (Carcinogen: N-BUTYL-N-(4-HYDROXYBUTYL)NITROSAMINE (3817-11-6), Dose [Inhibitor]: 0, 10 PPM IN THE DIET FOR 40 WK (STUDY DURATION: 40 WK), Route [Inhibitor]: ORAL, Species: RAT, Strain/Sex: F344/MALE, Target Tissue: Type of Lesion: URINARY BLADDER: PAPILLOMA, Dose [Carcinogen]: 50 PPM IN DRINKING WATER FOR 40 WK) 15/20 (75%), 11/20 (55%), 27%, not significant. Besides, the “tumour outcome (control, treated, inhibition, significance)” value is recorded as 19/20 (95%), 15/20 (75%), 21%, not significant (Carcinogen: N-BUTYL-N-(4-HYDROXYBUTYL)NITROSAMINE (3817-11-6), Dose [Inhibitor]: 0, 100 PPM IN THE DIET FOR 40 WK (STUDY DURATION: 40 WK), Route [Inhibitor]: ORAL, Species: RAT, Strain/Sex: F344/MALE, Target Tissue: Type of Lesion: URINARY BLADDER: CARCINOMA, Dose [Carcinogen]: 50 PPM IN DRINKING WATER FOR 40 WK); 15/20 (75%), 9/20 (45%), 40%, p< 0.05 (Carcinogen: N-BUTYL-N-(4-HYDROXYBUTYL)NITROSAMINE (3817-11-6), Dose [Inhibitor]: 0, 100 PPM IN THE DIET FOR 40 WK (STUDY DURATION: 40 WK), Route [Inhibitor]: ORAL, Species: RAT, Strain/Sex: F344/MALE, Target Tissue: Type of Lesion: URINARY BLADDER: PAPILLOMA, Dose [Carcinogen]: 50 PPM IN DRINKING WATER FOR 40 WK); 19/20 (95%), 5/20 (25%), 74%, p< 0.01 (Carcinogen: N-BUTYL-N-(4-HYDROXYBUTYL)NITROSAMINE (3817-11-6), Dose [Inhibitor]: 0, 1000 PPM IN THE DIET FOR 40 WK (STUDY DURATION: 40 WK), Route [Inhibitor]: ORAL, Species: RAT, Strain/Sex: F344/MALE, Target Tissue: Type of Lesion: URINARY BLADDER: CARCINOMA, Dose [Carcinogen]: 50 PPM IN DRINKING WATER FOR 40 WK); 15/20 (75%), 2/20 (10%), 87%, p< 0.01 (Carcinogen: N-BUTYL-N-(4-HYDROXYBUTYL)NITROSAMINE (3817-11-6), Dose [Inhibitor]: 0, 1000 PPM IN THE DIET FOR 40 WK (STUDY DURATION: 40 WK), Route [Inhibitor]: ORAL, Species: RAT, Strain/Sex: F344/MALE, Target Tissue: Type of Lesion: URINARY BLADDER: PAPILLOMA, Dose [Carcinogen]: 50 PPM IN DRINKING WATER FOR 40 WK); 100%, 100%, 0%, not significant (Carcinogen: N-NITROSOMETHYLBENZYLAMINE, 937-40-6, Dose [Inhibitor]: 0, 0.4 UMOL/G IN DIET FOR 25 WK BEGINNING 2 WK PRIOR TO CARCINOGEN TREATMENT (STUDY DURATION: 25 WK), Route [Inhibitor]: ORAL, Species: RAT, Strain/Sex: F344/MALE, Target Tissue: Type of Lesion: ESOPHAGUS: TUMOR, Dose [Carcinogen]: 0.5 MG/KG BW IN 20% DMSO 1/WK FOR 15 WK); 100%, 100%, 0%, not significant (Carcinogen: N-NITROSOMETHYLBENZYLAMINE, 937-40-6, Dose [Inhibitor]: 0, 1 UMOL/G IN DIET FOR 25 WK BEGINNING 2 WK PRIOR TO CARCINOGEN TREATMENT (STUDY DURATION: 25 WK), Route [Inhibitor]: ORAL, Species: RAT, Strain/Sex: F344/MALE, Target Tissue: Type of Lesion: ESOPHAGUS: TUMOR, Dose [Carcinogen]: 0.5 MG/KG BW IN 20% DMSO 1/WK FOR 15 WK). Besides, the “tumour outcome (control, treated, inhibition, significance)” value (Carcinogen: N-NITROSOMETHYLBENZYLAMINE, 937-40-6, Dose [Inhibitor]: 0, 2.5 UMOL/G IN DIET FOR 25 WK BEGINNING 2 WK PRIOR TO CARCINOGEN TREATMENT (STUDY DURATION: 25 WK), Route [Inhibitor]: ORAL, Species: RAT, Strain/Sex: F344/MALE, Target Tissue: Type of Lesion: ESOPHAGUS: TUMOR, Dose [Carcinogen]: 0.5 MG/KG BW IN 20% DMSO 1/WK FOR 15 WK) is 100%, 100%, 0%, not significant. Further, the outcome (Carcinogen: BENZO[A]PYRENE, 50-32-8, Dose [Inhibitor]: 0, 5 UMOL IN ACETONE 4 HR PRIOR TO CARCINOGEN DOSE (STUDY DURATION: 20 WK), Route [Inhibitor]: DERMAL, Species: MOUSE, Strain/Sex: STRAIN-A/FEMALE, Target Tissue: Type of Lesion: SKIN: TUMOR, Dose [Carcinogen]: 0.1 UMOL IN ACETONE ONCE, Promoter: 12-O-TETRADECANOYLPHORBOL-13-ACETATE, 16561-29-8) is reported as 70%, 60%, 14%, not significant at 15 wk; 95%, 75%, 21%, not significant at 20 wk.
